According to patent publication US10155750B2, “Amidoethyl azole orexin receptor antagonists” (Merck Sharp & Dohme Corp., priority 2014, dated 2018):
pIC50: −log10 of the molar value.

How the values were obtained:
[1] = molecular target: hOX1R (orexin-1 receptor) (Homo sapiens, UniProt O43613); assay: FLIPR Ca2+ flux assay, hOX1R; format: cell-based; conditions: CHO cells expressing the receptor; agonist 70 pM Ala-6,12 human orexin-A
human orexin-2 receptor = human orexin-2 receptor (Homo sapiens (Human), UniProt O43614); assay: FLIPR Ca2+ flux assay, hOX2R; format: cell-based; conditions: CHO cells expressing the receptor; agonist 70 pM Ala-6,12 human orexin-A
Sequence of human orexin-2 receptor (O43614 whole entry): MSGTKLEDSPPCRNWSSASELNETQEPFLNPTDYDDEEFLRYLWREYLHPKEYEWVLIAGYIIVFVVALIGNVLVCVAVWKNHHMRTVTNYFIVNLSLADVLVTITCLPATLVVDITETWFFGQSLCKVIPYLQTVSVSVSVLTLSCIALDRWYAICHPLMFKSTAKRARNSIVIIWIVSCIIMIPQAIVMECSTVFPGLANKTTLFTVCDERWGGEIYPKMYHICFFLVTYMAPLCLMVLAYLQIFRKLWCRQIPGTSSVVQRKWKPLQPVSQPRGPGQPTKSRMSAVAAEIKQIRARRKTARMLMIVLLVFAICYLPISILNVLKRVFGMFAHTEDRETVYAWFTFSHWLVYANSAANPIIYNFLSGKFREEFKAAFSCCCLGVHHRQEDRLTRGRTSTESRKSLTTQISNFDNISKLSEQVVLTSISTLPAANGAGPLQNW
Description: The utility of the compounds in accordance with the present invention as orexin receptor OX1R and/or OX2R antagonists may be readily determined without undue experimentation by methodology well known in the art, including the “FLIPR Ca^2+ Flux Assay” (Okumura et al., Biochem. Biophys. Res. Comm. 280:976-981, 2001). In a typical experiment the OX1 and OX2 receptor antagonistic activity of the compounds of the present invention was determined in accordance with the following experimental method. For intracellular calcium measurements, Chinese hamster ovary (CHO) cells expressing the rat orexin-1 receptor or the human orexin-2 receptor, are grown in Iscove's modified DMEM containing 2 mM L-glutamine, […], 1% hypoxanthine-thymidine supplement, 100 U/ml penicillin, 100 μg/ml streptomycin and 10% heat-inactivated fetal calf serum (FCS). The cells are seeded at 20,000 cells/well into Becton-Dickinson black 384-well clear bottom sterile plates coated with poly-D-lysine. All reagents were from GIBCO-Invitrogen Corp. The seeded plates are incubated overnight at 37° C. and 5% CO2. Ala-6,12 human orexin-A as the agonist is prepared as a 1 mM stock solution in 1% bovine serum albumin (BSA) and diluted in assay buffer (HBSS containing 20 mM HEPES, 0.1% BSA and 2.5 mM probenecid, pH7.4) for use in the assay at a final concentration of 70 pM. Test compounds are prepared as 10 mM stock solution in DMSO, then diluted in 384-well plates, first in DMSO, then assay buffer. On the day of the assay, cells are washed 3 times with 100 μl assay buffer and then incubated for 60 min (37° C., 5% CO2) in 60 μl assay buffer containing 1 μM Fluo-4AM ester, 0.02% pluronic acid, and 1% BSA. The dye loading solution is then aspirated and cells are washed 3 times with 100 μl assay buffer. 30 μl of that same buffer is left in each well. Within the Fluorescent Imaging Plate Reader (FLIPR, Molecular Devices), test compounds are added to the plate in a volume of 25 μl, incubated for 5 min and finally 25 μl of agonist is added. Fluorescence is measured for each well at 1 second intervals for 5 minutes and the height of each fluorescence peak is compared to the height of the fluorescence peak induced by 70 pM Ala-6,12 orexin-A with buffer in place of antagonist. For each antagonist, IC50 value (the concentration of compound needed to inhibit 50% of the agonist response) is determined. Alternatively, compound potency can be assessed by a radioligand binding assay (described in Bergman et. al. Bioorg. Med. Chem. Lett. 2008, 18, 1425-1430) in which the inhibition constant (Ki) is determined in membranes prepared from CHO cells expressing either the OX1 or OX2 receptor. The intrinsic orexin receptor antagonist activity of a compound which may be used in the present invention may be determined by these assays.

Row | Structure (SMILES) | pIC50 [1] | pIC50 (human orexin-2 receptor)
1 | CCN(CCn1nc(C)c(C(C)(C)O)n1)C(=O)c1cccnc1OCC(F)(F)F [Example 21, N-Ethyl-N-(2-(4-(2-hydroxypropan-2-yl)-5-methyl-2H-1,2,3-triazol-2-yl)ethyl)-2-(2,2,2-trifluoroethoxy)nicotinamide] | < 5.00 | 7.68
2 | CCN(CCn1ncc(C(C)(C)O)n1)C(=O)c1ccccc1-n1nccn1 [Example 1, N-Ethyl-N-(2-(4-(2-hydroxypropan-2-yl)-2H-1,2,3-triazol-2-yl)ethyl)-2-(2H-1,2,3-triazol-2-yl)benzamide] | < 5.00 | 7.24
3 | CCN(CCn1ncc(C(C)(C)O)n1)C(=O)c1ccccc1C1CC1 [Example 4, 2-Cyclopropyl-N-ethyl-N-(2-(4-(2-hydroxypropan-2-yl)-2H-1,2,3-triazol-2-yl)ethyl)benzamide] | < 5.00 | 7.33
4 | CCN(CCn1nc(C)c(C(C)(C)O)n1)C(=O)c1cccnc1-c1ccccc1 [Example 31, N-ethyl-N-(2-(4-(2-hydroxypropan-2-yl)-5-methyl-2H-1,2,3-triazol-2-yl)ethyl)-2-phenylnicotinamide] | < 5.00 | 7.48
5 | CCN(CCn1nc(C)c(C(C)(C)O)n1)C(=O)c1cccnc1OC(C)C [Example 22, N-ethyl-N-(2-(4-(2-hydroxypropan-2-yl)-5-methyl-2H-1,2,3-triazol-2-yl)ethyl)-2-isopropoxynicotinamide] | < 5.00 | 7.21
6 | CCCc1ccccc1C(=O)N(CC)CCn1nc(C)c(C(C)(C)O)n1 [Example 32, N-ethyl-N-(2-(4-(2-hydroxypropan-2-yl)-5-methyl-2H-1,2,3-triazol-2-yl)ethyl)-2-propylbenzamide] | 5.66 | 7.49
7 | CCN(CCn1ncc(C(C)(O)CC)n1)C(=O)c1ccccc1-n1nccn1 (centres unmarked) [Example 2, N-Ethyl-N-(2-(4-(2-hydroxybutan-2-yl)-2H-1,2,3-triazol-2-yl)ethyl)-2-(2H-1,2,3-triazol-2-yl)benzamide] | < 5.00 | 7.19
8 | CCN(CCn1nc(C)c(C(C)(C)O)n1)C(=O)c1ccccc1OC(F)(F)F [Example 26] | < 5.00 | 7.72
9 | CCN(CCn1nc(C)c(C(C)(C)O)n1)C(=O)c1ccc(F)cc1-n1nccn1 [Example 30, N-ethyl-4-fluoro-N-(2-(4-(2-hydroxypropan-2-yl)-5-methyl-2H-1,2,3-triazol-2-yl)ethyl)-2-(2H-1,2,3-triazol-2-yl)benzamide] | 5.26 | 8.00
10 | CCN(CCn1ncc(C(C)(C)O)n1)C(=O)c1ccccc1N1CCCC1 [Example 5, N-ethyl-N-(2-(4-(2-hydroxypropan-2-yl)-2H-1,2,3-triazol-2-yl)ethyl)-2-(pyrrolidin-1-yl)benzamide] | < 5.00 | 7.39
11 | CCN(CCn1ncc(C(C)O)n1)C(=O)c1ccccc1-n1nccn1 (centres unmarked) [Example 3, N-Ethyl-N-(2-(4-(1-hydroxyethyl)-2H-1,2,3-triazol-2-yl)ethyl)-2-(2H-1,2,3-triazol-2-yl)benzamide] | < 5.00 | 6.43
12 | CCN(CCn1ncc(C(C)(C)O)n1)C(=O)c1ccccc1OC(F)(F)F [Example 12, N-ethyl-N-(2-(4-(2-hydroxypropan-2-yl)-2H-1,2,3-triazol-2-yl)ethyl)-2-(trifluoromethoxy)benzamide] | < 5.00 | 6.61
13 | CCN(CCn1nc(C)c(C(C)(C)O)n1)C(=O)c1cccnc1OCC(F)F [Example 24, 2-(2,2-difluoroethoxy)-N-ethyl-N-(2-(4-(2-hydroxypropan-2-yl)-5-methyl-2H-1,2,3-triazol-2-yl)ethyl)nicotinamide] | < 5.00 | 7.36
14 | CCN(CCn1ncc(C(C)(C)O)n1)C(=O)c1ccccc1SC(F)(F)F [Example 11, N-ethyl-N-(2-(4-(2-hydroxypropan-2-yl)-2H-1,2,3-triazol-2-yl)ethyl)-2-((trifluoromethyl)thio)benzamide] | < 5.00 | 7.47

Further lines, results first:

Row | pIC50 [1] | pIC50 (human orexin-2 receptor) | Structure (SMILES)
15 | < 5.00 | 6.57 | CCN(CCn1nc(C)c(C(C)(C)O)n1)C(=O)c1cccnc1CC(F)(F)F [Example 36, N-ethyl-N-(2-(4-(2-hydroxypropan-2-yl)-5-methyl-2H-1,2,3-triazol-2-yl)ethyl)-2-(2,2,2-trifluoroethyl) nicotinamide]
16 | 5.68 | 7.82 | CCN(CCn1nc(C)c(C(C)(C)O)n1)C(=O)c1ccccc1N1CCCC1 [Example 41, N-ethyl-N-(2-(4-(2-hydroxypropan-2-yl)-5-methyl-2H-1,2,3-triazol-2-yl)ethyl)-2-(pyrrolidin-1-yl)benzamide]
17 | 5.55 | 7.85 | CCN(CCn1nc(C)c(C(C)(C)O)n1)C(=O)c1ccc(OC)nc1C1CC1 [Example 39, 2-cyclopropyl-N-ethyl-N-(2-(4-(2-hydroxypropan-2-yl)-5-methyl-2H-1,2,3-triazol-2-yl)ethyl)-6-methoxynicotinamide]
18 | 5.83 | 8.00 | CCN(CCn1nc(C)c(C(C)(C)O)n1)C(=O)c1ccccc1C1CC1(F)F (centres unmarked) [Example 38, 2-(2,2-difluorocyclopropyl)-N-ethyl-N-(2-(4-(2-hydroxypropan-2-yl)-5-methyl-2H-1,2,3-triazol-2-yl)ethyl)benzamide]
19 | < 5.00 | 7.43 | CCN(CCn1nc(C)c(C(C)(C)O)n1)C(=O)c1ccccc1CC(F)(F)F [Example 34, N-ethyl-N-(2-(4-(2-hydroxypropan-2-yl)-5-methyl-2H-1,2,3-triazol-2-yl)ethyl)-2-(2,2,2-trifluoroethyl) benzamide]
20 | < 5.00 | 7.06 | CCN(CCn1nc(C)c(C(C)(C)O)n1)C(=O)c1nccnc1-c1ccccn1 [Example 45, N-ethyl-N-(2-(4-(2-hydroxypropan-2-yl)-5-methyl-2H-1,2,3-triazol-2-yl)ethyl)-3-(pyridin-2-yl)pyrazine-2-carboxamide]
21 | < 5.00 | 6.62 | CCN(CCn1nc(C)c(C(C)(C)O)n1)C(=O)c1nccnc1-n1cccn1 [Example 47, N-ethyl-N-(2-(4-(2-hydroxypropan-2-yl)-5-methyl-2H-1,2,3-triazol-2-yl)ethyl)-3-(1H-pyrazol-1-yl)pyrazine-2-carboxamide]
22 | < 5.00 | 7.54 | CCN(CCn1nc(C)c(C(C)(C)O)n1)C(=O)c1ccccc1-n1ncnn1 [Example 42, N-ethyl-N-(2-(4-(2-hydroxypropan-2-yl)-5-methyl-2H-1,2,3-triazol-2-yl)ethyl)-2-(2H-tetrazol-2-yl)benzamide]
23 | < 5.00 | 7.28 | CCN(CCn1nc(C)c(C(C)(C)O)n1)C(=O)c1ccccc1OCC(F)(F)F [Example 33, N-ethyl-N-(2-(4-(2-hydroxypropan-2-yl)-5-methyl-2H-1,2,3-triazol-2-yl)ethyl)-2-(2,2,2-trifluoroethoxy) benzamide]
24 | 5.93 | 7.89 | CCN(CCn1nc(C)c(C(C)(C)O)n1)C(=O)c1ccccc1C1CCC1 [Example 40, 2-cyclobutyl-N-ethyl-N-(2-(4-(2-hydroxypropan-2-yl)-5-methyl-2H-1,2,3-triazol-2-yl)ethyl)benzamide]
25 | < 5.00 | 7.64 | CCN(CCn1ccc(C(C)(C)O)n1)C(=O)c1ccccc1-n1nccn1 [Example 50, N-Ethyl-N-{2-[3-(1-hydroxy-1-methylethyl)-1H-pyrazol-1-yl]ethyl}-2-(2H-1,2,3-triazol-2-yl)benzamide]
